Test results published in patent US20080027104A1, “Novel Crystalline Forms 2” (AstraZeneca AB, priority 2006, published 2008).

Assays:
Format in all cases: physicochemical
[1] = Thermogravimetric analysis of crystalline form; conditions: range from 25° C. up to 205° C.
Procedure: (§1) The crystalline forms may be further characterised by the presence of one or more of the additional properties listed below: • (i) for Form I • (I) when characterised by thermogravimetric analysis, a weight loss of approx. 0.8% occurs in the range from 25° C. up to 205° C., and/or • (II) when characterised by differential scanning calorimetry, at a heating rate of 10° C. per minute in a closed cup with a pinhole under flowing nitrogen, a melting temperature (Tm) having an onset at about 194° C. and/or an associated endotherm of melting of about 96 J/g; and/or • (III) when stored at 80% RH (ambient) less than 0.2% moisture is adsorbed. • (i) for Form II • (I) when characterised by thermogravimetric analysis, a weight loss of approx. 0.2% occurs in the range from 25° C. up to 205° C., and/or • (II) when characterised by differential scanning calorimetry, at a heating rate of 10° C. per minute in a closed cup with a pinhole under flowing nitrogen, a melting temperature (Tm) having an onset at about 193° C. and/or an associated endotherm of melting of about 105 J/g.

[2] = Thermodynamic stability of crystal form; conditions: crystallised from THF/ethanol
[3] = Moisture adsorption on storage at 80% RH; conditions: stored at 80% RH (ambient)
Procedure: as §1

Row | Structure (SMILES) | weight loss by thermogravimetric analysis [1] | thermodynamic stability of crystal form [2] | moisture adsorbed [3]
1 | CCOC(=O)c1cc(C#N)c(N2CCC(C(=O)NS(=O)(=O)Cc3ccccc3)CC2)nc1C [Form II, 6-(4-{[(benzylsulfonyl)amino]carbonyl}piperidin-1-yl)-5-cyano-2-methylnicotinic acid ethyl ester] | approx. 0.2% | thermodynamically stable form | 
2 | CCOC(=O)c1cc(C#N)c(N2CCC(C(=O)NS(=O)(=O)Cc3ccccc3)CC2)nc1C [Form I, 6-(4-{[(benzylsulfonyl)amino]carbonyl}piperidin-1-yl)-5-cyano-2-methylnicotinic acid ethyl ester] | approx. 0.8% |  | less than 0.2%
